Assay [1] deals with KCL-22. The experiment in a line: Inhibition of cell expansion in human KCL22 cells at 10 nM incubated for 48 hrs by trypan blue dye exclusion counting method. The class given is functional, cell-based.
Assay [2] concerns KCL-22. Kind of assay: Induction of cell cycle arrest in human KCL22 cells assessed as accumulation at subG0 phase at 3 uM incubated for 72 hrs by propidium iodide staining based flow cytometry analysis (reference value: 3.91%). The class given is functional.
In assay [3] the test system is KCL-22. The experiment in a line: Inhibition of cell expansion in human KCL22 cells assessed as combination index at 3 uM incubated for 48 hrs in presence of 10 nM nilotinib by trypan blue dye exclusion counting method. Type of assay: functional.
The species entered for assay [4] is Homo sapiens. Kind of assay: Binding affinity to E2F1 consensus sequence DNA in human KCL22 cells assessed as reduction in PET112L gene expression at 3 uM incubated for 24 hrs by RT-qPCR analysis relative to control. Type of assay: cell-based. For orientation: Quantitative PCR measures a nucleic acid by following its amplification.
The species named for assay [5] is Homo sapiens. The experiment in a line: Binding affinity to E2F1 consensus sequence DNA in human KCL22 cells assessed as reduction in ZNF354B gene expression at 3 uM incubated for 24 hrs by RT-qPCR analysis relative to control. Type of assay: cell-based.
For assay [6], the system named is KCL-22. The experiment in a line: Induction of cell cycle arrest in human KCL22 cells assessed as accumulation at G2-M phase at 3 uM incubated for 72 hrs by propidium iodide staining based flow cytometry analysis (reference value: 14%). The class given is functional. In general terms: Flow cytometry measures light scatter and fluorescence of single cells or particles in a stream.

Assay [7] is filed under the species Homo sapiens. The experiment in a line: Binding affinity to E2F1 consensus sequence DNA in human KCL22 cells assessed as reduction in SF3B4 gene expression at 3 uM incubated for 24 hrs by RT-qPCR analysis relative to control. Type of assay: cell-based.
The test system of assay [8] is KCL-22. Kind of assay: Up-regulation of RARS2 gene expression in human KCL22 cells at 3 uM incubated for 24 hrs by RT-qPCR analysis relative to control. Type of assay: functional, cell-based.
Assay [9] relates to KCL-22. The experiment in a line: Up-regulation of TRIM45 gene expression in human KCL22 cells at 3 uM incubated for 24 hrs by RT-qPCR analysis relative to control. The class given is functional, cell-based.
The subject of assay [10] is KCL-22. The experiment in a line: Induction of cell cycle arrest in human KCL22 cells assessed as accumulation at G0-G1 phase at 3 uM incubated for 72 hrs by propidium iodide staining based flow cytometry analysis (reference value: 57.4%). The class given is functional.
The test system of assay [11] is KCL-22. Kind of assay: Inhibition of cell expansion in human KCL22 cells at 3 uM incubated for 48 hrs in presence of 10 nM nilotinib by trypan blue dye exclusion counting method. The class given is functional, cell-based.
Assay [12] relates to KCL-22. The experiment in a line: Induction of cell cycle arrest in human KCL22 cells assessed as accumulation at S phase at 3 uM incubated for 72 hrs by propidium iodide staining based flow cytometry analysis (reference value: 23.7%). Type of assay: functional.
Assay [13] relates to KCL-22. The experiment in a line: Inhibition of cell expansion in human KCL22 cells at 0.3 to 3 uM incubated for 48 hrs by trypan blue dye exclusion counting method. Type of assay: functional, cell-based.
The species named for assay [14] is Homo sapiens. Kind of assay: Binding affinity to E2F1 consensus sequence DNA in human KCL22 cells assessed as reduction in MCM2 gene expression at 3 uM incubated for 24 hrs by RT-qPCR analysis relative to control. Type of assay: cell-based.
The species entered for assay [15] is Homo sapiens. Kind of assay: Binding affinity to E2F1 consensus sequence DNA in human KCL22 cells assessed as reduction in MRRF gene expression at 3 uM incubated for 24 hrs by RT-qPCR analysis relative to control. Type of assay: cell-based.
Assay [16] is filed under the species Homo sapiens. The experiment in a line: Binding affinity to E2F1 consensus sequence DNA in human KCL22 cells assessed as reduction in PSMB8 gene expression at 3 uM incubated for 24 hrs by RT-qPCR analysis relative to control. Type of assay: cell-based.
For assay [17], the species on record is Homo sapiens. The experiment in a line: Binding affinity to E2F1 consensus sequence DNA in human KCL22 cells assessed as reduction in GNA13 gene expression at 3 uM incubated for 24 hrs by RT-qPCR analysis relative to control. Type of assay: cell-based.

Active and inactive are the calls of the source. The calls are words filed in the database; no cut-off is given here.

Turning to `Cc1cn(-c2cc(NC(=O)c3ccc(C)c(Nc4nccc(-c5cccnc5)n4)c3)cc(C(F)(F)F)c2)cn1`, the inhibition entry in the assay with KCL-22 [1] was “Active”.

Consider `CN(C)CCCNC(=O)c1cc(NC(=O)c2cc(NC(=O)c3cc(NC(=O)c4cc(NC(=O)[C@H](N)CCNC(=O)c5nc(NC(=O)c6nc(NC(=O)c7cc(NC(=O)c8nccn8C)cn7C)cn6C)cn5C)cn4C)cn3C)cn2C)cn1C`, for which the Activity was 3.84% in the assay with KCL-22 [2], 10.8% in the assay on KCL-22 [6], 58.1% with KCL-22 [10] and 26.4% with KCL-22 [12]. In the assay on KCL-22 [3], the CI is greater than 1. Also, the outcome in the assay filed under Homo sapiens [4], in the assay listed under Homo sapiens [5], in the assay filed under Homo sapiens [7], in the assay with KCL-22 [8], in the assay on KCL-22 [9] and in the assay listed under Homo sapiens [14] was Active. The result in the assay listed under Homo sapiens [15], in the assay listed under Homo sapiens [16] and in the assay listed under Homo sapiens [17] was Active. In addition, the inhibition result with KCL-22 [11] and with KCL-22 [13] was “Active” in each case.

The record behind these values is ChEMBL document CHEMBL4385661, “An investigation of targeted inhibition of transcription factor activity with pyrrole imidazole polyamide (PA) in chronic myeloid leukemia (CML) blast crisis cells” (2019).
